Laboratory results: paper PMC11911205 (Frontiers in Pharmacology, 2025)
Read-outs that look alike come from different tables or passages of the source. Blank lines part the entries; values can stand above or below the compound they belong to.

Tests used:
[1] = molecular target: human liver microsomes (HLM) (Homo sapiens, UniProt P08684)
Experimental: (§1) Considering that RLM or HLM microsome may have different metabolic rates, we conducted experiments on enzyme and incubation time before the start of the experiment. […] A rate-time graph was created to select the most suitable concentration and incubation time within the linear range of variation. […] The drug was dissolved in DMSO.
(§2) The relationship between reaction rate and substrate concentration based on the Michaelis-Menten equation was calculated, and the Km value through nonlinear fitting was determined. […] The relationship between inhibitor concentration and reaction rate was plotted after the reaction rate at different inhibitor concentrations was determined, and then the IC50 value through nonlinear regression analysis was calculated. […] The above mixture was incubated at 37°C for 5 min, after which NADPH was added to start the reaction process for 30 min, and it was finally cooled to −80°C to stop the reaction. 400 μL of acetonitrile and 20 μL of IS working solution (200 ng/mL) were incorporated into the mixture. Following vortexed and centrifugated at 13,000 rpm for 10 min, the supernatant was obtained for UPLC-MS/MS analysis.
(§3) Km, IC50, Lineweaver-Burk plots and mean plasma concentration-time curves were generated using GraphPad Prism 9.5 software. […] SPSS (version 26.0; SPSS Inc., Chicago, IL, United States) was used for data processing, and t-test was employed to determine whether there was a significant difference.

[2] = molecular target: vandetanib metabolism (N-demethyl vandetanib formation) in human liver microsomes (Homo sapiens, UniProt P08684); assay: Vandetanib metabolism (N-demethyl vandetanib formation) and its inhibition by luteolin in human liver microsomes; conditions: pH 7.4
Sequence of vandetanib metabolism (N-demethyl vandetanib formation) in human liver microsomes (P08684 2-503): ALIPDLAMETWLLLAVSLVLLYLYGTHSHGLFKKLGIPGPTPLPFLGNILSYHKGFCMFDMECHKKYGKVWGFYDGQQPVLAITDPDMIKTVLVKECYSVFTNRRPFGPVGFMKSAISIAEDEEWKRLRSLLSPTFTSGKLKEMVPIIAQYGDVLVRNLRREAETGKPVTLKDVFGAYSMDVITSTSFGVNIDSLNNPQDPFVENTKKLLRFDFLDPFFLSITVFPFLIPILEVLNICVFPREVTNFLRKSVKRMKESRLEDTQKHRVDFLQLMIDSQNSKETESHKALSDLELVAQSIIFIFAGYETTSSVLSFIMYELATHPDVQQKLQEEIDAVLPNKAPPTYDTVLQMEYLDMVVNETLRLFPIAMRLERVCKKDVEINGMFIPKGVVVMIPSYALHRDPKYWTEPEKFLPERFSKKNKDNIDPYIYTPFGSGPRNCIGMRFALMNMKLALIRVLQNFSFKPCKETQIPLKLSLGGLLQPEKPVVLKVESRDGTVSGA
Experimental: as §1, §2, §3

[3] = test system: vandetanib metabolism (N-demethyl vandetanib formation) in rat liver microsomes; assay: Vandetanib metabolism (N-demethyl vandetanib formation) and its inhibition by luteolin in rat liver microsomes; conditions: rat, rat liver microsomes, pH 7.4, probe vandetanib at its Km value in RLM
Experimental: as §1, §2, §3

[4] = test system: rat liver microsomes (RLM); assay: as above; conditions: RLM, Lineweaver-Burk plot
Experimental: as §1, §2, §3

[5] = Pharmacokinetics of vandetanib and N-demethyl vandetanib in SD rats with or without luteolin (UPLC-MS/MS of plasma); format: in vivo, Sprague-Dawley (SD) rats; conditions: for AUC(0-inf) / half-life / AUC(0-t) / CL/F / Cmax / Tmax / AUC(0-∞) / CLz/F / t1/2: plasma; for CL/F: read-out: CLz/F (converted)
Experimental: Male SD rats weighing 180–220 g were provided by the Laboratory Animal Center of the First Affiliated Hospital of Wenzhou Medical University (Zhejiang, China). They were housed under standard conditions with a temperature of 20°C–26°C, a relative humidity of 55% ± 15%, and a 12-h dark/light cycle. The rats had free access to water and no other drugs were given during the feeding period, and were prohibited from eating for 12 h before the experiment. The experimental procedures and protocols were in accordance with animal ethics standards and approved by the Institutional Animal Care and Use Committee of the First Affiliated Hospital of Wenzhou Medical University (Zhejiang, China).
Therefore, we adopted the same dosages to ensure the comparability and validity of the experimental results. 0.3 mL tail vein blood was collected at 0.5, 1, 1.5, 2, 3, 4, 6, 8, 12, 24, 48 and 80 h post-vandetanib administration. The blood samples were centrifuged at 4°C at 13,000 rpm for 10 min to obtain plasma, which was aspirated and stored at −80°C until analysis.

[6] = in vitro; conditions: rat, pH 7.4
Experimental: as §1, §2, §3

[7] = design: method as in Martin et al., 2011; conditions: ref Martin et al., 2011, cited from earlier work
[8] = design: method as in Indra et al., 2020; conditions: ref Indra et al., 2020; cited from earlier work
[9] = inhibition of vandetanib metabolism
[10] = luteolin 30 mg/kg + vandetanib 25 mg/kg vs vandetanib alone
[11] = male, Sprague-Dawley, rat, po, 25 mg/kg, luteolin 30 mg/kg by gavage 30 min before vandetanib 25 mg/kg by gavage
[12] = male, Sprague-Dawley, rat, po, 25 mg/kg, vandetanib 25 mg/kg by gavage alone (control group)
[13] = luteolin 30 mg/kg by gavage 30 min before vandetanib 25 mg/kg by gavage
[14] = vandetanib 25 mg/kg by gavage alone (control group)

Sequence of human liver microsomes (HLM) (P08684 2-503): as above

SMILES: O=c1cc(-c2ccc(O)c(O)c2)oc2cc(O)cc(O)c12 [Luteolin]
inhibition type [1]: mixture of non-competitive and un-competitive
α [1]: 0.28 µM
IC50 at 30 min [2]: 15.8 µM
IC50 at 30 min [3]: 8.56 µM
inhibition mechanism [4]: mixture of non-competitive inhibition and competitive inhibition
Ki [4, 9]: 2.33 µM
α [4, 9]: 6.68 µM

increase of AUC(0-t) of vandetanib in luteolin group compared with the control group [5, 10]: 18.1%
increase of Cmax of vandetanib in luteolin group compared with the control group [5, 10]: 32.8%
AUC(0-inf) [5, 11]: 41.1 µg·h/mL
half-life [5, 11]: 23 ± 4.02 h
AUC(0-t) ([5]; male, Sprague-Dawley, rat, po, 25 mg/kg, luteolin 30 mg/kg by gavage 30 min before vandetanib 25 mg/kg by gavage, read-out: AUC(0-t)): 37.1 µg·h/mL
CL/F [5, 11]: 0.61 L/h/kg
Cmax ([5]; male, Sprague-Dawley, rat, po, 25 mg/kg, luteolin 30 mg/kg by gavage 30 min before vandetanib 25 mg/kg by gavage, read-out: Cmax): 1.14 µg/mL
Tmax ([5]; male, Sprague-Dawley, rat, po, 25 mg/kg, luteolin 30 mg/kg by gavage 30 min before vandetanib 25 mg/kg by gavage, read-out: Tmax): 7.6 ± 2.61 h
AUC(0-inf) [5, 12]: 36.1 µg·h/mL
half-life [5, 12]: 26.6 ± 4.35 h
AUC(0-t) ([5]; male, Sprague-Dawley, rat, po, 25 mg/kg, vandetanib 25 mg/kg by gavage alone (control group), read-out: AUC(0-t)): 31.4 µg·h/mL
CL/F [5, 12]: 0.7 L/h/kg
Cmax ([5]; male, Sprague-Dawley, rat, po, 25 mg/kg, vandetanib 25 mg/kg by gavage alone (control group), read-out: Cmax): 0.859 ± 0.125 µg/mL
Tmax ([5]; male, Sprague-Dawley, rat, po, 25 mg/kg, vandetanib 25 mg/kg by gavage alone (control group), read-out: Tmax): 8.8 ± 3.03 h
Km at 30 min [6]: 9.41 µM
SMILES: COc1cc2c(Nc3ccc(Br)cc3F)ncnc2cc1OCC1CCN(C)CC1 [Vandetanib]
levels of vandetanib exposure ([7]; combined with itraconazole, a potent CYP3A4 inhibitor): increased
AUC of vandetanib ([7]; combined with rifampicin, a strong inducer of CYP3A4): significantly decreased

SMILES: COc1cc2c(Nc3ccc(Br)cc3F)ncnc2cc1OCC1CC[N+](C)([O-])CC1 (stereo not shown) [vandetanib N-oxide]
less activity compared to the original compound (vandetanib) [8]: over 50 times

AUC(0-t) [5, 13]: 0.99882 ± 0.27665 µg·h/mL
AUC(0-∞) [5, 13]: 1,118.64 ± 320.66 μg/L*h
CLz/F [5, 13]: 23.83 ± 6.50 L/h/kg
Cmax [5, 13]: 0.02241 ± 0.00584 µg/mL
Tmax [5, 13]: 11.20 ± 1.79 h
t1/2 [5, 13]: 24.33 ± 5.63 h
AUC(0-t) [5, 14]: 0.93888 ± 0.14407 µg·h/mL
AUC(0-∞) [5, 14]: 1,163.14 ± 157.34 μg/L*h
CLz/F [5, 14]: 21.83 ± 3.10 L/h/kg
Cmax [5, 14]: 0.01956 ± 0.00303 µg/mL
Tmax [5, 14]: 14.40 ± 5.37 h
t1/2 [5, 14]: 34.04 ± 15.69 h
SMILES: COc1cc2c(Nc3ccc(Br)cc3F)ncnc2cc1OCC1CCNCC1 [N-demethyl vandetanib]
